The record followed here is ChEMBL document CHEMBL2417535, “Synthesis and structure-activity relationships evaluation of benzothiazinone derivatives as potential anti-tubercular agents” (Bioorg Med Chem Lett, 2013).

Series [1] has as its system Mycobacterium tuberculosis. The experiment in a line: Antitubercular activity against Mycobacterium tuberculosis H37Ra ATCC 25177 by microplate alamar blue assay. Type of series: functional.
In series [2] the test system is Vero. The experiment in a line: Cytotoxicity against african green monkey Vero cells after 72 hrs by MTT assay. Particulars: Chlorocebus sabaeus. Type of series: cell-based.
A short description of series [3]: Selectivity index, ratio of IC50 for african green monkey Vero cells to MIC for Mycobacterium tuberculosis H37Ra ATCC 25177. Type of series: functional.
Series [4] can be described thus: Selectivity index, ratio of IC50 for african green monkey Vero cells to MIC for Mycobacterium tuberculosis H37Rv ATCC 27294. Type of series: functional.
The subject of series [5] is Mycobacterium tuberculosis. The experiment in a line: Antitubercular activity against Mycobacterium tuberculosis H37Rv ATCC 27294 by microdilution plate assay. Type of series: functional.
Series [6] deals with Mycobacterium tuberculosis. The experiment in a line: Ratio of isoniazid MIC to compound MIC for Mycobacterium tuberculosis H37Rv ATCC 27294. Type of series: functional.
Series [7] concerns Mycolicibacterium smegmatis. The experiment in a line: Antitubercular activity against Mycobacterium smegmatis MC2 155 by microplate alamar blue assay. Type of series: functional. Particulars: str. MC2 155.
A short description of series [8]: Lipophilicity, log P of the compound by shake flask method. Particulars: octanol/water. Type of series: physicochemical.
Series [9] has as its system Mycobacterium avium. As to the kind of experiment: Antitubercular activity against Mycobacterium avium ATCC 25291 by microdilution plate assay. Type of series: functional, Mycobacterium avium subsp. avium ATCC 25291.
Series [10] is described as follows: AUC (0 to infinity) in Sprague-Dawley rat at 20 mg/kg, po. Particulars: plasma. Set-up: dose 20 mg/kg, route oral, time infinity. Type of series: ADME, organism-based.
Series [11] in a line: Cmax in Sprague-Dawley rat at 10 mg/kg, iv. Type of series: ADME, organism-based. Set-up: dose 10 mg/kg, route intravenous. Particulars: in vivo.
Series [12] is described as follows: AUC (0 to infinity) in Sprague-Dawley rat at 10 mg/kg, iv. Type of series: ADME, organism-based. Also noted: time infinity, dose 10 mg/kg, route intravenous. Particulars: plasma.
The nature of series [13]: Cmax in Sprague-Dawley rat at 20 mg/kg, po. Type of series: ADME, organism-based. Also noted: dose 20 mg/kg, route oral. Particulars: in vivo.
The nature of series [14]: Oral bioavailability in Sprague-Dawley rat at 20 mg/kg. Type of series: ADME, organism-based. Particulars: in vivo.
Series [15] can be described thus: Elimination half life in Sprague-Dawley rat at 10 mg/kg, iv. Set-up: dose 10 mg/kg, route intravenous. Type of series: ADME, organism-based. To be noted: in vivo, read-out: beta t1/2 (converted).
Series [16] is described as follows: Elimination half life in Sprague-Dawley rat at 20 mg/kg, po. Particulars: in vivo, read-out: beta t1/2 (converted). Type of series: ADME, organism-based. Set-up: dose 20 mg/kg, route oral.
The test system of series [17] is Mus musculus. The experiment in a line: Acute toxicity in BALB/c mouse assessed as mortality at 2 g/kg, po. Type of series: organism-based. To be noted: in vivo, 2000 mg/kg.
Series [18] in a line: Tmax in Sprague-Dawley rat at 20 mg/kg, po. Type of series: ADME, organism-based. Set-up: dose 20 mg/kg, route oral. Particulars: in vivo.

Converted amounts (≈) assume the structure as drawn.

In the case of `CC(C)(C)Nc1nc(=O)c2cc([N+](=O)[O-])cc([N+](=O)[O-])c2s1`, in series [1], the MIC worked out at 0.4 µM (≈ 130 ng/mL).
Molecule `O=c1nc(NC2CCCC2)sc2c([N+](=O)[O-])cc(C(F)(F)F)cc12` registered an IC50 in series [2] above 100 µM. Moreover, inhibition of growth in series [1] (MIC) required 0.8 µM (≈ 287 ng/mL). Moreover, in series [3], the “Selectivity Index” value is recorded as above 125.
On to `O=c1nc(N2CCC3(CC2)OCCS3)sc2c([N+](=O)[O-])cc(C(F)(F)F)cc12`, for which the “Selectivity Index” value in [4] is listed as above 50000. For the same molecule, the IC50 in series [2] is above 100 µM. For the same molecule, the MIC in series [5] and in series [1] was 0.002 µM (≈ 0.867 ng/mL) in each case.
For the molecule `CC(C)(C)OC(=O)N1CCN(c2nc(=O)c3cc(C(F)(F)F)cc([N+](=O)[O-])c3s2)CC1`, the “Selectivity Index” value in series [4] was above 3000. Further, the IC50 in series [2] was above 100 µM. Also, in series [6], the Ratio is recorded as 6.7. Besides, the results for the MIC in series [5] and in series [1] were 0.03 µM (≈ 13.8 ng/mL) and 0.02 µM (≈ 9.21 ng/mL), respectively.
`CC(C)CNc1nc(=O)c2cc([N+](=O)[O-])cc([N+](=O)[O-])c2s1`: the MIC in series [1] stood at 1.6 µM (≈ 519 ng/mL).
Still for that read-out and setting: for `CCCCNc1nc(=O)c2cc([N+](=O)[O-])cc([N+](=O)[O-])c2s1` the value was 0.8 µM (≈ 259 ng/mL).
In series [2], `CCCCNc1nc(=O)c2cc(C(F)(F)F)cc([N+](=O)[O-])c2s1` yielded an IC50 above 100 µM. In addition, in series [1], the MIC was 0.8 µM (≈ 278 ng/mL). Besides, in series [3], the “Selectivity Index” value is given as above 125.
For the molecule `CC1COC2(CCN(c3nc(=O)c4cc(C(F)(F)F)cc([N+](=O)[O-])c4s3)CC2)O1` (racemic), the MIC in series [7] was 0.013 µM (≈ 5.61 ng/mL); in series [5] it was 0.002 µM (≈ 0.863 ng/mL); in series [9], 74 µM (≈ 31900 ng/mL); in [1], 0.004 µM (≈ 1.73 ng/mL). The logP in [8] was 2.69. For the same molecule, the “Selectivity Index” value in series [4] was above 50000. In addition, the IC50 in series [2] was above 100 µM.
On to `CC(C)(C)OC(=O)N1CCN(c2nc(=O)c3cc([N+](=O)[O-])cc([N+](=O)[O-])c3s2)CC1`, for which, in series [1], the MIC was 0.4 µM (≈ 175 ng/mL).
With `CC(C)CNc1nc(=O)c2cc(C(F)(F)F)cc([N+](=O)[O-])c2s1`, in [2], the IC50 was above 100 µM. For the same molecule, it took 0.8 µM (≈ 278 ng/mL) to inhibit growth in [1] (MIC). Further, the “Selectivity Index” value in series [3] is above 125.
Take `O=c1nc(NC2CC2)sc2c([N+](=O)[O-])cc(C(F)(F)F)cc12`: the IC50 in series [2] was above 100 µM. In [1], this molecule showed an MIC of 0.4 µM (≈ 133 ng/mL). Besides, the “Selectivity Index” value in series [3] is given as above 250.
Regarding `O=c1nc(N2CCC3(CC2)SCCS3)sc2c([N+](=O)[O-])cc(C(F)(F)F)cc12`, the MIC in [7] turned out to be 0.0063 µM (≈ 2.83 ng/mL); in series [5] it was 0.0001 µM (≈ 0.045 ng/mL); in series [9], 36 µM (≈ 16200 ng/mL); in [1], 0.001 µM (≈ 0.45 ng/mL). The same molecule came in with a lipophilicity (logP) in series [8] of 3.94. Besides, the AUC(0-inf) in [10] came to 780 ng·h/mL; in series [12] it was 1480 ng·h/mL. Moreover, the “Selectivity Index” value in [4] is listed as above 1000000. The Cmax was determined as 1720 ng/mL in series [11] and 560 ng/mL in series [13]. In addition, the IC50 in series [2] is above 100 µM. In series [6], the Ratio was 2000. Also, in series [14], the bioavailability stood at 26%. For the same molecule, the half-life is 2.5 h in series [15] and 5.4 h in [16]. Also, the Activity entry in series [17] is recorded as “Non-toxic”. In addition, the Tmax in series [18] worked out at 0.5 h.
Turning to `CC1CCN(c2nc(=O)c3cc(C(F)(F)F)cc([N+](=O)[O-])c3s2)CC1`, the “Selectivity Index” value in [4] is recorded as above 1250. The IC50 in series [2] is above 100 µM. In addition, the Ratio in [6] was determined as 2.5. Besides, the MIC was 0.08 µM (≈ 29.9 ng/mL) in series [5] and 0.1 µM (≈ 37.3 ng/mL) in [1].
Molecule `O=c1nc(N2CCOCC2)sc2c([N+](=O)[O-])cc(C(F)(F)F)cc12` had an IC50 in series [2] above 100 µM. The MIC in series [1] came out at 3.1 µM (≈ 1120 ng/mL). In addition, the “Selectivity Index” value in series [3] was above 32.
On the same counts, the results for `CCN(CC)c1nc(=O)c2cc(C(F)(F)F)cc([N+](=O)[O-])c2s1` are above 100 µM, 0.8 µM (≈ 278 ng/mL) and above 125.
For `CCCNc1nc(=O)c2cc([N+](=O)[O-])cc([N+](=O)[O-])c2s1`, in series [1], the lowest concentration to inhibit growth (MIC) was 3.1 µM (≈ 962 ng/mL).
Take `O=C(O)C1CCN(c2nc(=O)c3cc(C(F)(F)F)cc([N+](=O)[O-])c3s2)CC1`: the IC50 in series [2] was above 100 µM. This molecule also came in with an MIC in series [1] of 3.1 µM (≈ 1250 ng/mL). For the same molecule, the “Selectivity Index” value in series [3] is recorded as above 32.
On the same counts, the results for `CCCNc1nc(=O)c2cc(C(F)(F)F)cc([N+](=O)[O-])c2s1` are above 100 µM, 1.6 µM (≈ 533 ng/mL) and above 62.
`NNC(=O)c1ccncc1` [ISONIAZID]: the “Selectivity Index” value in series [4] is above 500. In addition, the IC50 in [2] is above 100 µM. Also, the minimal inhibitory concentration (MIC) worked out at 0.2 µM (≈ 27.4 ng/mL) in series [5] and 0.8 µM (≈ 110 ng/mL) in series [1].
Turning to `CCNc1nc(=O)c2cc(C(F)(F)F)cc([N+](=O)[O-])c2s1`, the IC50 in series [2] was above 100 µM. This molecule displayed an MIC in [1] of 6.3 µM (≈ 2010 ng/mL). Besides, in [3], the “Selectivity Index” value is on record as above 16.
For the molecule `O=c1nc(N2CCCCC2)sc2c([N+](=O)[O-])cc(C(F)(F)F)cc12`, the “Selectivity Index” value in [4] is recorded as above 142. Moreover, the IC50 in series [2] is above 100 µM. Moreover, the MIC in series [5] worked out at 0.7 µM (≈ 252 ng/mL); in [1] it was 0.8 µM (≈ 287 ng/mL).
`CC1CCN(c2nc(=O)c3cc([N+](=O)[O-])cc([N+](=O)[O-])c3s2)CC1` displayed an MIC in [1] of 0.2 µM (≈ 70.1 ng/mL).
The molecule `O=c1nc(N2CCCC2)sc2c([N+](=O)[O-])cc(C(F)(F)F)cc12` displayed an IC50 in [2] above 100 µM. For the same molecule, it took 0.8 µM (≈ 276 ng/mL) to inhibit growth in series [1] (MIC). Besides, the “Selectivity Index” value in [3] is recorded as above 125.
